Data from patent publication US20180042929A1, “USE OF SUBSTITUTED 2,3-DIHYDROIMIDAZO[1,2-C]QUINAZOLINES” (Bayer Pharma Aktiengesellschaft, priority 2015, published 2018).

What was measured:
[1] = test system: HEC-1B xenograft tumor model; type: in vivo; conditions: 10 mg/kg Q14D i.p.
Protocol: The in vivo efficacy was evaluated in tumor xenograft models in nude mice with established human tumor cell lines at the MTD and sub-MTD dosages. Tumor cells were cultivated according to ATCC protocols in recommended media contained 10% FCS. Cells were harvested for transplantation in a subconfluent (70%) state. The volume of implantation was 100 μl for mice. When the tumors were approximately in size of 25-50 mm^2, the animals were randomized to treatment and control groups and treatment was started. Treatment of each animal was based on individual body weight. The optimal formulation, application route and schedule were used for each compound (see table 2). Oral administration (p.o.) was carried out via a gastric tube. The oral application volumes were 10 ml/kg and the intravenous application volumes were 10 ml/kg. Tumor area (product of the longest diameter and its perpendicular) using a calliper. The animal body weight was monitored as a measure for treatment-related toxicity. Measurement of tumor area and body weight was performed 2-3 times weekly. […] Treatment responses were evaluated by means of the clinically-used RECIST criteria (complete response, partial response, stable disease and progressive disease) and response rates were calculated accordingly (RR=number of animals with complete and partial response).

[2] = test system: MFE-280 xenograft tumor model; experiment: In vivo efficacy in MFE-280 xenograft tumor model; set-up: species or system nude mice; conditions: doxorubicin group
Protocol: The in vivo efficacy was evaluated in tumor xenograft models in nude mice with established human tumor cell lines at the MTD and sub-MTD dosages. Tumor cells were cultivated according to ATCC protocols in recommended media contained 10% FCS. Cells were harvested for transplantation in a subconfluent (70%) state. The volume of implantation was 100 μl for mice. When the tumors were approximately in size of 25-50 mm^2, the animals were randomized to treatment and control groups and treatment was started. Treatment of each animal was based on individual body weight. The optimal formulation, application route and schedule were used for each compound (see table 2). Oral administration (p.o.) was carried out via a gastric tube. The oral application volumes were 10 ml/kg and the intravenous application volumes were 10 ml/kg. Tumor area (product of the longest diameter and its perpendicular) using a calliper. The animal body weight was monitored as a measure for treatment-related toxicity. Measurement of tumor area and body weight was performed 2-3 times weekly. T/C ratios (Treatment/Control) were calculated with final tumor areas. Treatment responses were evaluated by means of the clinically-used RECIST criteria (complete response, partial response, stable disease and progressive disease) and response rates were calculated accordingly (RR=number of animals with complete and partial response).

[3] = dose not printed (i.p. Q14D per Table 2)

## COc1cccc2c1C(=O)c1c(O)c3c(c(O)c1C2=O)C[C@@](O)(C(=O)CO)C[C@@H]3O[C@H]1C[C@H](N)[C@H](O)[C@H](C)O1 [Doxorubicin]
[1]
  PD (progressive disease, number of tumors): 6
  Response rate: 0%
[1]; study end
  T/C area (Treatment/Control ratio, mean tumor areas): 0.56
  T/C weight (Treatment/Control ratio, final tumor weights): 0.48
[2]; dose not given
  CR (%): 0%
  PD (%): 37.5%
  PR (%): 12.5%
  RR (%): 12.5%
[2]; [3]
  T/C (tumor area): 0.51
  T/C (tumor weight): 0.39
